In ChEMBL document CHEMBL4476868, “Benzimidazole derivatives and uses thereof” (2017):

Target: Acetyl-coenzyme A synthetase, cytoplasmic (Homo sapiens, UniProt Q9NR19)
Assay: Inhibition of N-terminal 6x-histidine tagged human ACSS2 expressed in insect cells assessed as reduction in pyrophosphate production using CoA and ATP incubated for 30 mins by pyrophosphatase coupled enzymatic assay

Chain of Acetyl-coenzyme A synthetase, cytoplasmic (Q9NR19 whole entry): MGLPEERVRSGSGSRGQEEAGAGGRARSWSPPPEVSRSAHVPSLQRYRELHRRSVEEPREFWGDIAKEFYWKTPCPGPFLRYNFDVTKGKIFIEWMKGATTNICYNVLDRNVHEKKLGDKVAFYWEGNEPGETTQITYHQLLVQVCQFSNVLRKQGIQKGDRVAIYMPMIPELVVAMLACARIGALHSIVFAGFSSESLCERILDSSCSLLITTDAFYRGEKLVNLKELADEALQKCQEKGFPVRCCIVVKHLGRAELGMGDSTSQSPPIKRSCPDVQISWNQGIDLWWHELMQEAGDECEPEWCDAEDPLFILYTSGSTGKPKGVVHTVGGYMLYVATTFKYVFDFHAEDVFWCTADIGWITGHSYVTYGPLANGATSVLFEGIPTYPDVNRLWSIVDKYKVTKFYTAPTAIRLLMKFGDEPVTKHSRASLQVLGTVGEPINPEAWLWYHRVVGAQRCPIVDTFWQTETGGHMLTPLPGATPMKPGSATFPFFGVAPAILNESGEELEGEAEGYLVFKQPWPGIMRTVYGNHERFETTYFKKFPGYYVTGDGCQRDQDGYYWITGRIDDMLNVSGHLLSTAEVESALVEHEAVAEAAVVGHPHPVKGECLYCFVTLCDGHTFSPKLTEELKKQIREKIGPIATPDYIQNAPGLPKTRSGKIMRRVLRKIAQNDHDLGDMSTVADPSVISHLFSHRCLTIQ

SMILES | IC50 [µM]
CCn1c(C(O)(c2ccccc2)c2ccccc2)nc2ccc(C3(O)CCCCC3)cc21 | 0.25 to 1
CCn1ccc(-c2ccc3nc(C(O)(c4ccccc4)c4ccccc4)n(CC)c3c2)n1 | 0.25 to 1
CCn1c(C(O)(c2ccc(F)cc2)c2ncccc2F)nc2ccc(CCCO)cc21 (stereo not given) | 0.05 to 0.249
Cn1ccc(NC(=O)c2ccc3nc(C(O)(c4ccccc4F)c4ccccc4F)n(CCO)c3c2)n1 | 0.05 to 0.249
CCn1c(C(O)(c2ccccc2)c2ccccc2)nc2ccc(CCO)cc21 | 0.05 to 0.249
CCn1c(C(O)(c2ccccc2)c2ccccc2)nc2ccc(C(=O)NCC(O)COC)cc21 (stereo not given) | 0.05 to 0.249
CCn1c(C(O)(c2ccccc2)c2ccccc2F)nc2ccc(C(=O)NCCO)cc21 (stereo not given) | 0.05 to 0.249
CCN1CCC[C@@H](NC(=O)c2ccc3nc(C(O)(c4ccccc4)c4ccccc4)n(CC)c3c2)C1 | 0.25 to 1
CCn1ccc(-c2cc3c(cc2F)nc(C(O)(c2ccccc2)c2ccccc2)n3CC)n1 | 0.25 to 1
CCOc1cc2c(cn1)nc(C(O)(c1ccccc1)c1ccccc1)n2CC | 0.25 to 1
CCn1c(C(O)(c2ccccc2)c2ccccc2)nc2ccc(CNC(C)=O)cc21 | 0.05 to 0.249
CCn1c(C(O)(c2ccccc2)c2ccccc2)nc2ccc(C(=O)NCCOC)cc21 | 0.25 to 1
CCn1c(C(O)(c2ccccc2)c2ccccc2)nc2ccc(C(O)CO)cc21 (stereo not given) | 0.05 to 0.249
CCn1c(C(O)(c2ccccc2)c2ccccc2)nc2cc(F)c(C(=O)NCCO)cc21 | 0.25 to 1
CCOc1cccc2nc(C(O)(c3ccccc3)c3ccccc3)n(CC)c12 | > 1
CCCc1ccc2nc(C(O)(c3ccccc3)c3ccccc3)n(CC)c2c1 | > 1
CCn1c(C(O)(c2ccccc2)c2ccccc2)nc2ccc(C(=O)N3CCNCC3)cc21 | > 1
CCn1c(C(O)(c2ccccc2)c2ccccc2)nc2ccc(C(=O)N(C)C)cc21 | 0.25 to 1
CCn1c(C(O)(c2ccccc2F)c2ccccc2F)nc2ccc(C(=O)N[C@@H]3CCC(=O)N(C)C3)cc21 | 0.05 to 0.249

The remaining lines, values ahead:

IC50 [µM] | SMILES
0.25 to 1 | CCn1c(C(O)(c2ccccc2)c2ccccc2)nc2ccc(C(=O)NCCO)cc21
0.05 to 0.249 | CCn1c(C(O)(c2ccccc2)c2ccccc2)nc2ccc(NC(=O)COC)cc21
0.25 to 1 | CCn1c(C(O)(c2ccccc2)c2ccccc2)nc2ccc(C(=O)N3CC(O)C3)cc21
0.05 to 0.249 | CCn1c(C(O)(c2ccccc2)c2ccccc2)nc2ccc(C(=O)Nc3ccccc3)cc21
0.05 to 0.249 | CCn1c(C(O)(c2ccccc2)c2ccccc2)nc2ccc(C(=O)N[C@H]3CCC(=O)N(C)C3)cc21
> 1 | CCn1c(C(O)(c2ccccc2)c2ccccc2)nc2ccc(C(=O)N3CCN(C)CC3)cc21
0.25 to 1 | Cc1ccc2c(c1)nc(C(O)(c1ccccc1)c1ccccc1)n2C
> 1 | CCn1c(C(O)(c2ccccc2)c2ccccc2)nc2cccc(OC)c21
0.25 to 1 | Cc1cccnc1C(O)(c1ccccc1)c1nc2ccc(C(=O)NC[C@@H](C)O)cc2n1C (stereo not given in full)
0.25 to 1 | C[C@@H](O)CNC(=O)c1ccc2nc(C(O)(c3ccc(F)cc3F)c3ccc(F)cc3F)n(C)c2c1
0.05 to 0.249 | CCONC(=O)c1ccc2nc(C(O)(c3ccccc3)c3ccccc3)n(CC)c2c1
0.05 to 0.249 | CCn1c(C(O)(c2ccccc2)c2ccccc2)nc2ccc(C(=O)NC)c(F)c21
0.25 to 1 | CNC(=O)c1ccc2nc(C(O)(c3ccccc3)c3ccccc3)n(C3CC3)c2c1
0.25 to 1 | CCn1c(C(O)(c2ccccc2)c2ccccc2)nc2cnc(OCCO)cc21
> 1 | C[C@@H](O)CNC(=O)c1ccc2nc(C(O)(c3ccccc3)c3ccccc3)n(C3CCNC3)c2c1 (stereo not given in full)
0.25 to 1 | CCn1c(C(O)(c2ccccc2)c2ccccc2)nc2cc(OC)ncc21
0.25 to 1 | CCn1c(C(O)(c2ccccc2)c2ccccc2)nc2ccc(C(=O)N3CCC3)cc21
0.25 to 1 | CCn1c(C(O)(c2ccccc2)c2ccccc2)nc2ccnc(OCCO)c21
> 1 | CCn1c(C(O)(c2ccccc2)c2ccccc2)nc2ccc(OCC3CC3)cc21
0.25 to 1 | CCn1c(C(O)(c2ccccc2)c2ccccc2)nc2ccc(C)c(F)c21
> 1 | COCCNC(=O)c1cccc(C(O)(c2ccccc2)c2nc3ccc(Cl)cc3n2C)c1 (stereo not given)
